Assay results from the NIST ThermoML archive (doi:10.1021/je900387e).
± gives the expanded uncertainty stated by the source.

Assay: xn = mol fraction of the nth substance listed
Details: Liquid, Pycnometric method

CCCCBr [1-bromobutane] + O=C=O
Details	mass density [kg/m3]
337.4 K, 10260 kPa, x1 = 0.0461	482 ± 4
337.4 K, 10290 kPa, x1 = 0.0989	717 ± 4
337.4 K, 10310 kPa, x1 = 0.1495	879 ± 4
337.4 K, 10340 kPa, x1 = 0.0461	492 ± 4
337.4 K, 10360 kPa, x1 = 0.0989	722 ± 4
337.4 K, 10430 kPa, x1 = 0.0461	502 ± 4
337.4 K, 10430 kPa, x1 = 0.1495	881 ± 4
337.4 K, 10440 kPa, x1 = 0.0989	726 ± 4
337.4 K, 10520 kPa, x1 = 0.0989	730 ± 4
337.4 K, 10540 kPa, x1 = 0.0461	513 ± 4
337.4 K, 10580 kPa, x1 = 0.1495	884 ± 4
337.4 K, 10590 kPa, x1 = 0.0989	735 ± 4
337.4 K, 10660 kPa, x1 = 0.0461	524 ± 4
337.4 K, 10690 kPa, x1 = 0.0989	739 ± 4
337.4 K, 10690 kPa, x1 = 0.1495	887 ± 4
337.4 K, 10790 kPa, x1 = 0.0461	537 ± 4
337.4 K, 10790 kPa, x1 = 0.0989	743 ± 4
337.4 K, 10810 kPa, x1 = 0.1495	889 ± 4
337.4 K, 10890 kPa, x1 = 0.0989	748 ± 4
337.4 K, 10910 kPa, x1 = 0.0461	549 ± 4
337.4 K, 10970 kPa, x1 = 0.1495	893 ± 4
337.4 K, 10990 kPa, x1 = 0.0989	752 ± 4
337.4 K, 11060 kPa, x1 = 0.0461	563 ± 4
337.4 K, 11100 kPa, x1 = 0.1495	895 ± 4
337.4 K, 11130 kPa, x1 = 0.0989	757 ± 4
337.4 K, 11230 kPa, x1 = 0.0461	577 ± 4
337.4 K, 11240 kPa, x1 = 0.0989	762 ± 4
337.4 K, 11250 kPa, x1 = 0.1495	898 ± 4
337.4 K, 11370 kPa, x1 = 0.0461	588 ± 4
337.4 K, 11370 kPa, x1 = 0.0989	766 ± 4
337.4 K, 11420 kPa, x1 = 0.1495	901 ± 4
337.4 K, 11510 kPa, x1 = 0.0461	599 ± 4
337.4 K, 11520 kPa, x1 = 0.0989	771 ± 4
337.4 K, 11580 kPa, x1 = 0.1495	904 ± 4
337.4 K, 11680 kPa, x1 = 0.0461	611 ± 4
337.4 K, 11680 kPa, x1 = 0.0989	776 ± 4
337.4 K, 11740 kPa, x1 = 0.1495	906 ± 4
337.4 K, 11830 kPa, x1 = 0.0989	781 ± 4
337.4 K, 11860 kPa, x1 = 0.0461	623 ± 4
337.4 K, 11920 kPa, x1 = 0.1495	909 ± 4
337.4 K, 12010 kPa, x1 = 0.0989	786 ± 4
337.4 K, 12070 kPa, x1 = 0.1495	912 ± 4
337.4 K, 12080 kPa, x1 = 0.0461	636 ± 4
337.4 K, 12200 kPa, x1 = 0.0989	791 ± 4
337.4 K, 12280 kPa, x1 = 0.1495	915 ± 4
337.4 K, 12320 kPa, x1 = 0.0461	649 ± 4
337.4 K, 12390 kPa, x1 = 0.0989	796 ± 4
337.4 K, 12490 kPa, x1 = 0.1495	918 ± 4
337.4 K, 12580 kPa, x1 = 0.0461	663 ± 4
337.4 K, 12620 kPa, x1 = 0.0989	801 ± 4
337.4 K, 12680 kPa, x1 = 0.1495	921 ± 4
337.4 K, 12850 kPa, x1 = 0.0989	806 ± 4
337.4 K, 12890 kPa, x1 = 0.1495	924 ± 4
337.4 K, 12910 kPa, x1 = 0.0461	674 ± 4
337.4 K, 13110 kPa, x1 = 0.0989	812 ± 4
337.4 K, 13130 kPa, x1 = 0.1495	927 ± 4
337.4 K, 13260 kPa, x1 = 0.0461	693 ± 4
337.4 K, 13320 kPa, x1 = 0.1495	930 ± 4
337.4 K, 13360 kPa, x1 = 0.0989	817 ± 4
337.4 K, 13530 kPa, x1 = 0.0461	703 ± 4
337.4 K, 13550 kPa, x1 = 0.1495	933 ± 4
337.4 K, 13650 kPa, x1 = 0.0989	822 ± 4
337.4 K, 13770 kPa, x1 = 0.1495	936 ± 4
337.4 K, 13920 kPa, x1 = 0.0989	828 ± 4
337.4 K, 14020 kPa, x1 = 0.1495	939 ± 4
337.4 K, 14220 kPa, x1 = 0.0989	833 ± 4
337.4 K, 14300 kPa, x1 = 0.1495	942 ± 4
337.4 K, 14530 kPa, x1 = 0.1495	945 ± 4
337.4 K, 14570 kPa, x1 = 0.0989	839 ± 4
337.4 K, 14750 kPa, x1 = 0.1495	948 ± 4
337.4 K, 14880 kPa, x1 = 0.0989	844 ± 4
337.4 K, 15050 kPa, x1 = 0.1495	951 ± 4
337.4 K, 15220 kPa, x1 = 0.0989	850 ± 4
337.9 K, 9120 kPa, x1 = 0.0245	280 ± 4
337.9 K, 9150 kPa, x1 = 0.0245	283 ± 4
337.9 K, 9220 kPa, x1 = 0.0245	288 ± 4
337.9 K, 9290 kPa, x1 = 0.0245	292 ± 4
337.9 K, 9370 kPa, x1 = 0.0245	297 ± 4
337.9 K, 9440 kPa, x1 = 0.0245	303 ± 4
337.9 K, 9520 kPa, x1 = 0.0245	308 ± 4
337.9 K, 9600 kPa, x1 = 0.0245	314 ± 4
337.9 K, 9680 kPa, x1 = 0.0245	320 ± 4
337.9 K, 9750 kPa, x1 = 0.0245	325 ± 4
337.9 K, 9830 kPa, x1 = 0.0245	331 ± 4
337.9 K, 9920 kPa, x1 = 0.0245	338 ± 4
337.9 K, 10000 kPa, x1 = 0.0245	345 ± 4
337.9 K, 10080 kPa, x1 = 0.0245	352 ± 4
337.9 K, 10180 kPa, x1 = 0.0245	359 ± 4
337.9 K, 10270 kPa, x1 = 0.0245	367 ± 4
337.9 K, 10360 kPa, x1 = 0.0245	375 ± 4
337.9 K, 10450 kPa, x1 = 0.0245	383 ± 4
337.9 K, 10560 kPa, x1 = 0.0245	391 ± 4
337.9 K, 10620 kPa, x1 = 0.0245	397 ± 4
337.9 K, 10630 kPa, x1 = 0.0245	399 ± 4
